Source: ChEMBL document CHEMBL1201862, “PubChem BioAssay data set” (2004)
Where “and” joins values, the source holds several entries; their conditions need not be identical. Equal values may be shown once.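 Following 48 hours of exposure in 96-well plates, responses at five concentrations were used to interpolate endpoints linearly. GI50 marks 50% less growth.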 Calls of active or inactive are those of the source. Cut-off read from the data, not from the text of the source: active = GI50 up to about 1.1 µM and inactive = higher.

Experiments:
Assay in all cases: inhibition of tumour cell growth, NCI panel, 48 h
[1] = system: A549
[2] = system: ACHN
[3] = system: BT-549
[4] = system: DU-145
[5] = system: HCT-116
[6] = system: HCT-15
[7] = system: HL-60
[8] = system: HOP-62
[9] = system: K562
[10] = system: KM12
[11] = system: LOX IMVI
[12] = system: MOLT-4
[13] = system: NCI-H23
[14] = system: NCI-H522
[15] = system: OVCAR-3
[16] = system: RXF 393
[17] = system: SF-295
[18] = system: SF-539
[19] = system: SK-MEL-2
[20] = system: SN12C

SMILES | GI50 [1] | GI50 [2] | GI50 [3] | GI50 [4] | GI50 [5] | GI50 [6] [µM] | GI50 [7] | GI50 [8] | GI50 [9] | GI50 [10] | GI50 [11] | GI50 [12] | GI50 [13] | GI50 [14] | GI50 [15] | GI50 [16] | GI50 [17] | GI50 [18] | GI50 [19] | GI50 [20]
CCOP(=O)(OCC)/C(=C/NC(=S)c1ccncc1)C(=O)OC | > 100 µM (inactive) | > 100 µM (inactive) | > 100 µM (inactive) | > 100 µM (inactive) | > 100 µM (inactive) | > 100 | 53.5 µM (inactive) | > 100 µM (inactive) | > 100 µM (inactive) | > 100 µM (inactive) | > 100 µM (inactive) | > 100 µM (inactive) | > 100 µM (inactive) | > 100 µM (inactive) | > 100 µM (inactive) | > 100 µM (inactive) | > 100 µM (inactive) | > 100 µM (inactive) | > 100 µM (inactive) | > 100 µM (inactive)
Cc1cccc(/N=C/C=C(\Cl)c2ccc3ccccc3c2)c1 | 44.6 µM (inactive) | 16.4 µM (inactive) | 19.1 µM (inactive) | 17.7 µM (inactive) | 2.98 µM (inactive) | 11.7 | 11.4 µM (inactive) | 17 µM (inactive) | 12.6 µM (inactive) | 17.7 µM (inactive) | 2.79 µM (inactive) | 2.56 µM (inactive) | 13.9 µM (inactive) | 32.6 µM (inactive) | 15 µM (inactive) | 15.6 µM (inactive) | 32.1 µM (inactive) | 17.8 µM (inactive) | 22.9 µM (inactive) | 16.6 µM (inactive)
O=C1N/C(=N/N=C\C(O)C(O)C(O)CO)N/C1=C/c1ccc(Cl)cc1 (stereo not given) | 71.8 µM (inactive) | 18.1 µM (inactive) and 17.8 µM (inactive) | 30.7 µM (inactive) and 23.9 µM (inactive) | 44.8 µM (inactive) and 70.5 µM (inactive) | 43.9 µM (inactive) and 46.2 µM (inactive) | 20.6 | 35.7 µM (inactive) | 46.2 µM (inactive) and 40.3 µM (inactive) | 27.3 µM (inactive) and 27.2 µM (inactive) | 29.9 µM (inactive) and 37.2 µM (inactive) | 40.6 µM (inactive) and 35.5 µM (inactive) | 18.5 µM (inactive) and 16.3 µM (inactive) | 30.3 µM (inactive) and 42.8 µM (inactive) | 22.5 µM (inactive) and 20.4 µM (inactive) | 21.6 µM (inactive) and 17.2 µM (inactive) | 92 µM (inactive) | 41.5 µM (inactive) | 41.5 µM (inactive) | 30.5 µM (inactive) and 40.1 µM (inactive) | 69 µM (inactive) and 80.5 µM (inactive)
Cc1ccc([C@H]2CC(=O)C[C@H](c3ccc(C)cc3)C23C(=O)c2ccccc2C3=O)cc1 | 43.2 µM (inactive) | 63.4 µM (inactive) | 34.3 µM (inactive) | > 100 µM (inactive) | 34.6 µM (inactive) | 34.8 | 11 µM (inactive) | 22.1 µM (inactive) | 23.3 µM (inactive) | > 100 µM (inactive) | 9.98 µM (inactive) | 27 µM (inactive) | > 100 µM (inactive) | 3.23 µM (inactive) | 41.9 µM (inactive) | 19.1 µM (inactive) | 21.1 µM (inactive) | 32.4 µM (inactive) | 31.2 µM (inactive) | 48.4 µM (inactive)
O=C1CCC2(CCO1)OCCO2 | > 100 µM (inactive) | > 100 µM (inactive) | > 100 µM (inactive) | > 100 µM (inactive) | > 100 µM (inactive) | > 100 | > 100 µM (inactive) | > 100 µM (inactive) | > 100 µM (inactive) | > 100 µM (inactive) | > 100 µM (inactive) | > 100 µM (inactive) | > 100 µM (inactive) | > 100 µM (inactive) | > 100 µM (inactive) | > 100 µM (inactive) | > 100 µM (inactive) | > 100 µM (inactive) | > 100 µM (inactive) | > 100 µM (inactive)
c1ccc2c(c1)Nc1c3ccccc3nc3cccc-2c13 | 1.05 µM (active) | 0.818 µM (active) | 7.43 µM (inactive) | 1.48 µM (inactive) | 0.499 µM (active) | 0.632 | 1.58 µM (inactive) | 1.02 µM (active) | 0.386 µM (active) | 1.12 µM (active) | 0.877 µM (active) | 0.157 µM (active) | 1.35 µM (inactive) | 1.23 µM (inactive) | 1.46 µM (inactive) | 1.51 µM (inactive) | 1.17 µM (inactive) | 1.6 µM (inactive) | 1.6 µM (inactive) | 0.979 µM (active)
COC(=O)NCCc1n[nH]c2c1C(=O)C=C(Nc1ccccc1)C2=O | 36.7 µM (inactive) | 32.4 µM (inactive) | 23.4 µM (inactive) | 47.5 µM (inactive) | 21.7 µM (inactive) | 22.4 | 19.2 µM (inactive) | 68.2 µM (inactive) | 28.2 µM (inactive) | 18.4 µM (inactive) | 15.5 µM (inactive) | 19.7 µM (inactive) | 15.1 µM (inactive) | 13.5 µM (inactive) | 3.72 µM (inactive) | 41.2 µM (inactive) | 30.3 µM (inactive) | 20.7 µM (inactive) | 20.6 µM (inactive) | 34.8 µM (inactive)
